Common to all, as to type: cell-based, human
Assay [1] relates to ICOSL. The experiment in a line: ICOSL induction in hcMSC by priming factors (qRT-PCR, RT-PCR). Conditions: for levels of ICOSL mRNA in hcMSCs: IL-1β 10 ng/mL, TNF-α 10 ng/mL, LPS 2 μg/mL, qRT-PCR. An excerpt: It has been known that the immunosuppressive activity of MSCs can be influenced by various priming or appropriate stimulations. It was confirmed that ICOSL expression in hcMSCs correlated with Treg induction. Thus, it was expected that ICOSL expression was enhanced to increase Treg and to strengthen the immunosuppressive function of hcMSCs. To confirm this expectation, an experiment was first carried out to confirm pro-inflammatory cytokine that can induce ICOSL expression. First, to find appropriate priming factors, hcMSCs were treated with IL-1β (10 ng/mL), TNF-α (10 ng/mL) and LPS (2 μg/mL) for 24 hours. Then, ICOSL expression was determined after 1 hour and 3 hours though qRT-PCR. Further, in order to confirm whether the expression of IL-1R in hcMSC was changed by […] treatment, the expression of IL-1R in hcMSC was confirmed after treatment with IL-1β for 24 hours. The results are illustrated in FIG. 16.
(In general: In qPCR the cycle at which signal appears reflects the starting amount.)

The subject of assay [2] is PI3K-Akt signaling pathway. The experiment in a line: Akt phosphorylation in CD4^+ T cells (Western blotting). The settings on record: pre-treatment 30 min; LY294002 5 μM, GSK690693 1 μM. How it is done:
Five independent experiments were carried out. […] After 2 days, hcMSCs were washed three times with cold phosphate-buffered saline (PBS) containing 0.05 mM ethylenediamine tetraacetic acid (EDTA) to detach lymphocytes from hcMSCs. Then, hcMSCs were trypsinized and washed twice with cold PBS-EDTA solution and stained with phycoerythrin (PE)-conjugated ICOSL antibody (BioLegend) to analyze ICOSL expression.
More particularly, CD4^+ T cells were pre-treated with LY294002 (5 μM) and GSK690693 (1 μM) for 30 min. […] Total Akt was determined.
In general terms: A western blot detects proteins with antibodies after separation by electrophoresis.

Assay [3] relates to CD4^+ T cells. The experiment in a line: Effect of PI3K-Akt inhibitors on rhICOSL- or hcMSC-induced Treg induction. The settings on record: 2 days; LY294002 5 μM, GSK690693 1 μM. As for the experimental part: Akt inhibitor […] (Calbiochem, San Diego, Calif., USA) was used at a concentration of 1 μM and LY294002 (Cell Signaling Technology, Danvers, Mass., USA) was used at concentration of 5 to 10 μM. […] Total Akt was determined. […] The results are illustrated in FIG. 14.

As to “IL-1β: pro-inflammatory cytokine used as priming factor for hcMSCs”, the “levels of ICOSL mRNA in hcMSCs” value is reported as “highest effect” in assay [1] and “increased” in assay [1] (listed as IL-10). For the same molecule, the “expression of IL-1R mRNA in hcMSC” value in assay [1] (IL-1β 10 ng/ml, 24 hours) is “did not change the expression of IL-1R mRNA”.

As to `CCn1c(-c2nonc2N)nc2c(C#CC(C)(C)O)ncc(OC[C@H]3CCCNC3)c21` [GSK690693], in assay [2], the “rhICOSL-induced Akt phosphorylation” value is given as “marked decrease in Akt phosphorylation”. Moreover, the “rhICOSL or hcMSC-induced Tregs” value in assay [3] is reported as “decreased”.

Turning to TNF-α, the “levels of ICOSL mRNA in hcMSCs” value in assay [1] was “increased”.

Values taken from patent US11096967B2, “Pharmaceutical composition for preventing or treating regulatory T cell-mediated diseases” (SCM LIFESCIENCE CO., LTD., priority 2016, dated 2021).
